Counter-ions that a name gives are not always drawn. Like-named read-outs stand apart in the source and are kept apart here.
What was measured:
[1] = test system: Mycobacterium tuberculosis H37Ra; assay: Mycobacterium tuberculosis growth inhibition assay (microtiter dilution, resazurin reduction); assay type: cell-based; settings: 7H9 broth, 9 days + 24 h resazurin, lowest concentration inhibiting resazurin reduction by >70%, several symbols in a cell = repeat determinations
Procedure: Compounds were screened for their ability to inhibit the growth of Mycobacterium tuberculosis H37Ra using a standard microtiter dilution method with reduction of the dye resazurin as an indicator of growth. The growth assay was carried out in standard Mycobacterium liquid growth medium, 7H9Broth (BD Biosciences, Franklin Lakes, N.J.) supplemented with 10% ADC enrichment (BD Biosciences, Franklin Lakes, N.J.). The medium was inoculate with ˜1×10^6 cells/milliliter of Mycobacterium tuberculosis H37Ra grown on a the surface of a growth medium solid medium (7H11 agar [BD Biosciences, Franklin Lakes, N.J.] supplemented with 10% OADC enrichment [BD Biosciences, Franklin Lakes, N.J.]).
Two-fold serial dilutions (either 7 or 11-step series) of test compounds in DMSO were dispensed into 96-well assay plates (sterile, black sided, clear bottom wells) in a volume of 1 microliter. One microliter of DMSO was dispensed into a control well at the end of each series. One-hundred microliters of the bacterial cell suspension in growth medium was dispensed into each test well containing a DSMO solution of compound. The assay plates were covered with a fitted lid and incubated at 37° C. in a humidified chamber for 9 days. On the ninth day 30 microliters of a 0.01% solution of resazurin (Sigma Chemical Co., St. Louis, Mo.) in distilled water was added to each well and the baseline fluorescence of resazurin was determined by measuring well fluorescence at an excitation wavelength of 492 nm and an emission wavelength of 595 nm on a Spectrafluor Plus (Tecan, Durham, N.C.) instrument. The assay plates were returned to the incubation chamber for 24 hours. After 24 hours, the fluorescence of the wells (resulting from the reduction of resazurin dye) was measured at an excitation wavelength of 492 nm and an emission wavelength of 595 nm on the Spectrafluor Plus instrument. The minimum inhibitory concentration (MIC) was called as the lowest concentration of compound that inhibited the reduction of resazurin by >70%, as compared to the DMSO (untreated) control wells. MIC values are represented as the following values: • A* <1.6 μM • A 1.6 μM<12.5 μM • B** 12.5 μM-25.0 μM • B* 25.0 μM-50.0 μM • B 50.0 μM-100.0 μM • C >100.0 μM

[2] = molecular target: T1, PknB (Mycobacterium tuberculosis, UniProt P9WI81); assay: biochemical; set-up: species or system M. tuberculosis; settings: for Ki: read-out: Ki Values
T1 construct: made in house

[3] = 3 nM PknB, 6 uM GarA, 3 μM ATP, 30 min, competitive tight-binding fit, several symbols in a cell = repeat determinations

T1 sequence (P9WI81 whole entry): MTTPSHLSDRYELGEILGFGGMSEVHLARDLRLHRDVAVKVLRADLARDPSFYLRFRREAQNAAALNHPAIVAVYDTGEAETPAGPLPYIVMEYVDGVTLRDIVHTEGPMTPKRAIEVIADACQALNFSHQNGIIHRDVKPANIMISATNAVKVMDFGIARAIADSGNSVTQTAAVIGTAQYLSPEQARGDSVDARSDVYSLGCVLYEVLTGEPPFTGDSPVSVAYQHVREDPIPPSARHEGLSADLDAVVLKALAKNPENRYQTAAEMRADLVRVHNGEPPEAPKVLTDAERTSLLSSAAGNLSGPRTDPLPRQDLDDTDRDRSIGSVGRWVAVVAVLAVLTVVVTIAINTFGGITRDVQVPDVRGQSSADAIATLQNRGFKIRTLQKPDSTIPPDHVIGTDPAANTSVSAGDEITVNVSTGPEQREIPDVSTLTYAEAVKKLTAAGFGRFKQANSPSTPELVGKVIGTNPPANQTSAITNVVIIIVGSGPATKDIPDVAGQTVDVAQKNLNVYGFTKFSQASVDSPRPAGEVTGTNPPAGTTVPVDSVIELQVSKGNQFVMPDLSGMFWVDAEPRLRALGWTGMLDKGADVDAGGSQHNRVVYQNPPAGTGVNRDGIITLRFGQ

| SMILES | MIC values [1] | Ki [2, 3] | Ki Values [2] | Ki Values [2, 3] |
| --- | --- | --- | --- | --- |
| Oc1ccc(-c2ncc(Cl)c(Nc3cc(C4CC4)[nH]n3)n2)cc1 [Compound 126, 4-[5-chloro-4-[(5-cyclopropyl-1H-pyrazol-3-yl)amino]-pyrimidin-2-yl]phenol] | B++, B+ | 10 to 50 nM | – | – |
| C#Cc1cnc(-c2ccc(Cl)c(C(N)=O)c2)nc1Nc1cc(C2CC2)n[nH]1 [Compound 128, 2-chloro-5-(4-(3-cyclopropyl-1H-pyrazol-5-ylamino)-5-ethynylpyrimidin-2-yl)benzamide] | B+, C | 10 to 50 nM | – | – |
| CN(CCO)S(=O)(=O)c1ccc(-c2ncc(Cl)c(Nc3cc(C4CC4)[nH]n3)n2)s1 [Compound 129, 5-(5-Chloro-4-(5-cyclopropyl-1H-pyrazol-3-ylamino)pyrimidin-2-yl)-N-(2-hydroxyethyl)-N-methylthiophene-2-sulfonamide] | B++ | 1 to 10 nM | – | – |
| CC(=O)NCc1ccc(-c2ncc(Cl)c(Nc3cc(C4CC4)n[nH]3)n2)s1 [Compound 136, N-((5-(5-chloro-4-(3-cyclopropyl-1H-pyrazol-5-ylamino)pyrimidin-2-yl)thiophen-2-yl)methyl)acetamide] | B+ | 10 to 50 nM | – | – |
| NCCNS(=O)(=O)c1cccc(-c2ncc(Cl)c(Nc3cc(C4CC4)[nH]n3)n2)c1 [Compound 138, N-(2-aminoethyl)-3-[5-chloro-4-[(5-cyclopropyl-1H-pyrazol-3-yl)amino]-pyrimidin-2-yl]-benzenesulfonamide] | B, C | 10 to 50 nM | – | – |
| O=S(=O)(NC1CC1)c1ccc(-c2ncc(Cl)c(Nc3cc(C4CC4)[nH]n3)n2)s1 [Compound 139, 5-[5-chloro-4-[(5-cyclopropyl-1H-pyrazol-3-yl)amino]-pyrimidin-2-yl]-N-cyclopropyl-thiophene-2-sulfonamide] | B+, C | 10 to 50 nM | – | – |
| NCc1ccc(-c2ncc(Cl)c(Nc3cc(C4CC4)n[nH]3)n2)s1 [Compound 141, 2-(5-(aminomethyl)thiophen-2-yl)-5-chloro-N-(3-cyclopropyl-1H-pyrazol-5-yl)pyrimidin-4-amine hydrochloride] | B, C, C | – | A, A, B** | – |
| Cc1cnc(-c2ccc([C@@H](C)O)s2)nc1Nc1cc(C2CC2)[nH]n1 [Compound 145, (R)-1-(5-(4-(5-cyclopropyl-1H-pyrazol-3-ylamino)-5-methylpyrimidin-2-yl)thiophen-2-yl)ethanol] | B++, B+ | 50 to 100 nM | – | – |
| Cc1cnc(-c2ccc([C@H](C)O)s2)nc1Nc1cc(C2CC2)[nH]n1 [Compound 146, (S)-1-(5-(4-(5-cyclopropyl-1H-pyrazol-3-ylamino)-5-methylpyrimidin-2-yl)thiophen-2-yl)ethanol] | B++ | – | – | A*, A** |
| O=S(=O)(NC1CCOCC1)c1ccc(-c2ncc(Cl)c(Nc3cc(C4CC4)[nH]n3)n2)s1 [Compound 148, 5-[5-chloro-4-[(5-cyclopropyl-1H-pyrazol-3-yl)amino]-pyrimidin-2-yl]-N-tetrahydropyran-4-yl-thiophene-2-sulfonamide] | B, C | – | – | A, B** |
| Cc1cnc(-c2ccc(S(=O)(=O)NC(C)(C)C)s2)nc1Nc1cc(C2CC2)n(C)n1 [Compound 149, 5-[4-[(5-cyclopropyl-1-methyl-pyrazol-3-yl)amino]-5-methyl-pyrimidin-2-yl]-N-tert-butyl-thiophene-2-sulfonamide] | B+ | > 4000 nM | – | – |
| NS(=O)(=O)c1ccc(-c2ncc(C(F)(F)F)c(Nc3cc(C4CC4)[nH]n3)n2)s1 [Compound 159, 5-(4-(5-cyclopropyl-1H-pyrazol-3-ylamino)-5-(trifluoromethyl)pyrimidin-2-yl)thiophene-2-sulfonamide] | B+ | 100 to 500 nM | – | – |
| C#Cc1cnc(-c2ccc(CN)s2)nc1Nc1cc(C2CC2)[nH]n1 [Compound 167, 2-(5-(aminomethyl)thiophen-2-yl)-N-(5-cyclopropyl-1H-pyrazol-3-yl)-5-ethynylpyrimidin-4-amine hydrochloride] | B++ | – | A, A, A, B** | – |
| CC(C)(C)NS(=O)(=O)c1ccc(-c2ncc(Br)c(Nc3cc(C4CC4)[nH]n3)n2)s1 [Compound 170, 5-[5-bromo-4-[(5-cyclopropyl-1H-pyrazol-3-yl)amino]-pyrimidin-2-yl]-N-tert-butyl-thiophene-2-sulfonamide] | B+ | – | – | A*, A |
| NS(=O)(=O)c1ccc(-c2ncc(CO)c(Nc3cc(C4CC4)n[nH]3)n2)s1 [Compound 171, 5-(4-(5-cyclopropyl-1H-pyrazol-3-ylamino)-5-(hydroxymethyl)pyrimidin-2-yl)thiophene-2-sulfonamide] | B++ | – | – | A, B**, B** |
| C#Cc1cnc(N2CC[C@@H](NC(=O)OC(C)(C)C)C2)nc1Nc1cc(C2CC2)n[nH]1 [Compound 173, tert-butyl [[1-[4-[(5-cyclopropyl-2H-pyrazol-3-yl)amino]-5-ethynyl-pyrimidin-2-yl]pyrrolidin-3-yl]amino]formate] | B+ | – | – | B, C |
| C#Cc1cnc(-c2ccc(C(C)(C)O)s2)nc1Nc1cc(C2CC2)[nH]n1 [Compound 180, 2-(5-(4-(5-Cyclopropyl-1H-pyrazol-3-ylamino)-5-ethynylpyrimidin-2-yl)thiophen-2-yl)propan-2-ol] | B++ | 10 to 50 nM | – | – |
| CCOC(=O)C(O)c1ccc(-c2ncc(Cl)c(Nc3cc(C4CC4)[nH]n3)n2)s1 (stereo not shown) [Compound 191, Ethyl 2-(5-(5-chloro-4-(5-cyclopropyl-1H-pyrazol-3-ylamino)pyrimidin-2-yl)thiophen-2-yl)-2-hydroxyacetate] | B, C | – | – | A*, B** |
| C#Cc1cnc(-c2ccc(S(=O)(=O)NC(C)=O)s2)nc1Nc1cc(C2CC2)[nH]n1 [Compound 192, N-(5-(4-(5-cyclopropyl-1H-pyrazol-3-ylamino)-5-ethynylpyrimidin-2-yl)thiophen-2-ylsulfonyl)acetamide] | B, C | 100 to 500 nM | – | – |
| CC(C)(C)OC(=O)/N=C(\N)c1ccc(-c2ncc(Cl)c(Nc3cc(C4CC4)[nH]n3)n2)s1 [Compound 197, tert-butyl [[amino-[5-[5-chloro-4-[(5-cyclopropyl-1H-pyrazol-3-yl)amino]-pyrimidin-2-yl]-2-thienyl]-methylene]amino]formate] | B+ | 500 to 1000 nM | – | – |
| C#Cc1cnc(-c2ccc([C@H](C)O)s2)nc1Nc1cc(C2CC2)n[nH]1 [Compound 198, (S)-1-(5-(4-(3-cyclopropyl-1H-pyrazol-5-ylamino)-5-ethynylpyrimidin-2-yl)thiophen-2-yl)ethanol] | A, A, A, B++ | 1 to 10 nM | – | – |
| C#Cc1cnc(N2CCCC2C(=O)OC)nc1Nc1cc(C2CC2)n[nH]1 (stereo not shown) [Compound 200, methyl 1-[4-[(5-cyclopropyl-2H-pyrazol-3-yl)amino]-5-ethynyl-pyrimidin-2-yl]pyrrolidine-2-carboxylate] | B, C | – | – | B, D, D |
| O=[N+]([O-])c1ccc(-c2ncc(Cl)c(Nc3cc(C4CC4)[nH]n3)n2)s1 [Compound 203, 5-Chloro-N-(5-cyclopropyl-1H-pyrazol-3-yl)-2-(5-nitrothiophen-2-yl)pyrimidin-4-amine] | A+, A | 1 to 10 nM | – | – |
| O=[N+]([O-])c1csc(-c2ncc(Cl)c(Nc3cc(C4CC4)[nH]n3)n2)c1 [Compound 204, 5-chloro-N-(5-cyclopropyl-1H-pyrazol-3-yl)-2-(4-nitrothiophen-2-yl)pyrimidin-4-amine] | B+ | 10 to 50 nM | – | – |
| [H]/N=C(\N)c1ccc(-c2ncc(Cl)c(Nc3cc(C4CC4)[nH]n3)n2)s1 [Compound 205, 5-(5-chloro-4-(5-cyclopropyl-1H-pyrazol-3-ylamino)pyrimidin-2-yl)thiophene-2-carboximidamide] | B, C | – | – | A, B** |
| C#Cc1cnc(-c2ccc([C@@H](C)O)s2)nc1Nc1cc(C2CC2)n[nH]1 [Compound 212, (R)-1-(5-(4-(3-cyclopropyl-1H-pyrazol-5-ylamino)-5-ethynylpyrimidin-2-yl)thiophen-2-yl)ethanol] | A, B++ | – | – | A**, A**, A* |
